Reference: US10544138B2, “Tricyclic kinase inhibitors of MELK and methods of use” (Dana-Farber Cancer Institute, Inc., priority 2015, dated 2020)
Entries after “also recorded” stand apart in the source; their conditions may differ.

Legend:
Aurora A = biological target: T1, Aurora A (Homo sapiens, UniProt O14965); experiment: Recombinant mitotic kinase assay, Aurora A; format: biochemical; conditions: recombinant kinases
T1 sequence (O14965 1-403): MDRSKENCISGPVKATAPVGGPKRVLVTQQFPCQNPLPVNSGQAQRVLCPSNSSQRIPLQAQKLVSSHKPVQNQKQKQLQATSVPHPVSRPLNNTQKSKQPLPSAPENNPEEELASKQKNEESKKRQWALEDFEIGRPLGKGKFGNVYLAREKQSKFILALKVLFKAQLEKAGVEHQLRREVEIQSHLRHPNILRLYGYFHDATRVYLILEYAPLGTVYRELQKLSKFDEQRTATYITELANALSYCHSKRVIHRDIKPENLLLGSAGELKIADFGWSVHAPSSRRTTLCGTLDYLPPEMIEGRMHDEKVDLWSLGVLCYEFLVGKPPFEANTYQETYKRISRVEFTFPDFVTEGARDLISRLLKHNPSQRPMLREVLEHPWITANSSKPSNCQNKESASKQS
Method: (§1) […] assays were performed with recombinant protein of the indicated mitotic kinase (left) and AMPK family kinases (right) in the presence of THZ-4-63-1. […] Cells were treated with nocodazole (100 ng/ml) for 18 h or not treated (Asyn., asynchronous). Nocodazole-arrested mitotic cells (M) were isolated via shake-off. The attached cells enriched in G2 phase (G2) were harvested. A portion of the mitotic cells were washed off nocodazole and released into G1 phase after 4 hours of incubation (G1). […] In Panel D, mitotic lysates were prepared from the indicated cells, and treated with λ-phosphatase at 30° C. In Panel E, nocodazole-arrested mitotic cells were treated with increasing concentration of THZ-4-63-1 for 30 min. Cell lysates were subjected to immunoblotting.
(§2) To discover a selective MELK inhibitor, a few molecule scaffolds with the potential of binding to MELK were identified, including 2,4-disubstituted pyrimidines and benzonaphthyridinones. […] To investigate if THZ-4-63-1 confers selective inhibition on MELK, we tested its effect on other mitotic kinases. In assays using recombinant kinases, MELK kinase activity was 20-fold more sensitive to THZ-4-63-1, than that of Aurora A, Aurora B, CDK1, or PLK1 (FIG. 1B).

MELK = MELK (Homo sapiens, UniProt Q14680); experiment: Electrophoretic mobility (auto-phosphorylation) of MELK in nocodazole-arrested mitotic cells, immunoblotting; format: cell-based; conditions: nocodazole-arrested mitotic cells (HeLa, MDA-MB-231), 30 min, increasing concentration
Chain of MELK (Q14680 whole entry): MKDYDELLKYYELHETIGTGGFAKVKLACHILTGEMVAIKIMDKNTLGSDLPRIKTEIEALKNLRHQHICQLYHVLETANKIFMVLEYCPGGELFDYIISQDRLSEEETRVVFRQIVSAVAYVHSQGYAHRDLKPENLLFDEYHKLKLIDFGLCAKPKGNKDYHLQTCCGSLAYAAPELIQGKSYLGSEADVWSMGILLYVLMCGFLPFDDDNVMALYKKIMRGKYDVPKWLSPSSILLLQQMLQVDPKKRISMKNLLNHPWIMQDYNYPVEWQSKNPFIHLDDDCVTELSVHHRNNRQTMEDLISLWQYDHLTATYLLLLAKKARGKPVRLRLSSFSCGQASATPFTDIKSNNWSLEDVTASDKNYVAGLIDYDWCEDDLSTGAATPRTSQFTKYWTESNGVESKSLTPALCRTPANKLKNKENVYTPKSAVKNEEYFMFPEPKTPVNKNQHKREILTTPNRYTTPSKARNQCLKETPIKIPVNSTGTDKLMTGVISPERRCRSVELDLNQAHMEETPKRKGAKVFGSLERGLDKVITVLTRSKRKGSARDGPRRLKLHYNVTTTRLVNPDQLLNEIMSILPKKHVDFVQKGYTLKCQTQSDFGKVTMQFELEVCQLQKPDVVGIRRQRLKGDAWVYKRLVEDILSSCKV
Method: as §1
Cell lysates were subjected to immunoblotting. […] The fluorescent signals of immunblotting were quantified using Image Studio Lite software (Licor Biosciences, Lincoln, Neb.). The signal of phosphorylated Aurora kinases was normalized to that of loading control (α-tubulin).
We next proceeded to test if THZ-4-63-1 inhibits MELK activity in vivo. With a lack of established kinase substrates of MELK during mitosis, we used the auto-phosphorylation of MELK as a surrogate to indicate the activity of MELK. […] We then harvested nocodazole-arrested mitotic cells, and treated cells with increasing concentrations of THZ-4-63-1.

CDK1 = CDK1 (Homo sapiens, UniProt P06493); experiment: Recombinant mitotic kinase assay, CDK1; format: biochemical; conditions: recombinant kinases
Chain of CDK1 (P06493 whole entry, species assumed): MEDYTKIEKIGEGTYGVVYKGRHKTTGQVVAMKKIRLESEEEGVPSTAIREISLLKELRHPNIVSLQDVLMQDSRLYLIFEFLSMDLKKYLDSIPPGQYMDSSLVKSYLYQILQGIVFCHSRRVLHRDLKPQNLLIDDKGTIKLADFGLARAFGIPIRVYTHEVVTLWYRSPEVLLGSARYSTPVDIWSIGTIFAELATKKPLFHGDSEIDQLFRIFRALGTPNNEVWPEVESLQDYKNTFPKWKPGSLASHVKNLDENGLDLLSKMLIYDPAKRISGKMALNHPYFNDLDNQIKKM
Chain of CDK1 (P14635 whole entry partner, species assumed): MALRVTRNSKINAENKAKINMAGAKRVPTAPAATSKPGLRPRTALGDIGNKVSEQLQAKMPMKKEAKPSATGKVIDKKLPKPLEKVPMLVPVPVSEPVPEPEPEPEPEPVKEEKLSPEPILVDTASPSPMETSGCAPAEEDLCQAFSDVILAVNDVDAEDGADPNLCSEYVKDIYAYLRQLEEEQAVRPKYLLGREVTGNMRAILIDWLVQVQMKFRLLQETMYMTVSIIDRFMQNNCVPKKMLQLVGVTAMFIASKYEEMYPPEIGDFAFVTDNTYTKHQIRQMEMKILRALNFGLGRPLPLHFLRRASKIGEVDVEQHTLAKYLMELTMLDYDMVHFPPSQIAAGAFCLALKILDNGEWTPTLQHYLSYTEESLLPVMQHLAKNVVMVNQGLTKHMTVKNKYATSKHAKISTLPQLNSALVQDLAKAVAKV
Method: as §1, §2

[1] = tested on: Cyclin B1, MELK, and Aurora B; experiment: Spindle assembly checkpoint signaling, abundance of mitotic factors by immunoblotting; format: cell-based; conditions: nocodazole- or paclitaxel-arrested cells
Method: Mitotic cells were treated with THZ-4-63-1 at indicated concentrations for 4 h. Cells were collected for immunoblotting. Panel B contains time-lapse images of U2OS-(H2B-GFP) cells treated with THZ-4-63-1 (5 μM). […] Panel C contains blots showing proteasome-mediated degradation of Cyclin B1, Aurora B and MELK in THZ-4-63-1-induced mitotic slippage. Mitotic cells were treated as in Panel A with THZ-4-63-1 (5 μM), or MG132 (10 μM), or both for 4 h. Panel D contains a graph showing quantification of cell proliferation in the indicated breast cancer cell lines, which were treated with vehicle control or THZ-4-63-1 for one week (Top) and also contains bright-field images acquired from control cells or cells treated with THZ-4-63-1 (111 nM) (Bottom). […] Cells were treated with indicated drugs, and harvested in ten days for quantification of cell growth. The bold curve depicts the theoretic prediction of an additive action between paclitaxel and THZ-4-63-1.
In Panel A, paclitaxel-arrested cells were treated with THZ-4-63-1 at indicated concentrations for 4 h. Cells were collected for immunoblotting. In Panel B, nocodazole- (top) or paclitaxel-arrested mitotic cells were treated with vehicle control or THZ-4-63-1 (5 μM) for increasing time. Cell lysates were collected for immunoblotting. […]

U2OS cells = experiment: Live-cell imaging of mitotic progression in U2OS-GFP-H2B cells; format: cell-based, human; conditions: 1 μM, asynchronized U2OS cells; control 31.1 min
Method: U2OS-GFP-H2B cells were treated with vehicle control (0.02% DMSO, v/v) or 1 μM THZ-4-63-1, and subjected to live imaging. Time is given in hours:minutes, relative to the initial time of drug treatment. The arrow points to chromosomes that haven't incorporated into the metaphase plate. […] MDA-MB-468 cells expressing tet-on-shMELK and GFPH2B cells were treated with doxycycline for three days, before subjected to live imaging. Panel D contains images of immunoblotting of lysates from cells treated as in Panel C. Panel E contains images showing mitotic cell death in a cell treated with THZ-4-63-1. The table indicates the quantification of cell death events. Panel F contains images showing that treatment with THZ-4-63-1 impairs chromosome alignment. Cells were treated with DMSO control, or THZ-4-63-1 (5 μM) for 4 hours, followed by MG132 (10 μM) for 1 h. Cells were fixed and stained with anti-CREST, anti-α-tubulin, and DAPI to visualize chromosomes and kinetochores. The histogram indicates the quantifications of cells in metaphase with misaligned chromosomes.
To utilize this novel compound for probing the roles of MELK in mitosis, we first treated asynchronized U2OS cells with THZ-4-63-1 (1 μM), and subjected the cells for live-cell imaging. The fusion protein GFP-Histone H2B was stably introduced into the cells to facilitate observing chromosome dynamics^2,7. […]

MELK kinase activity more sensitive than that of Aurora A (Aurora A): 20 fold
MELK kinase activity more sensitive than that of CDK1 (CDK1): 20 fold
Structure (SMILES): CN(C)Cc1ccc(-n2c(=O)ccc3cnc4ccc(-c5cc(Cl)c(O)c(Cl)c5)cc4c32)cc1 [THZ-4-63-1]
Electrophoretic mobility of mitotic MELK (MELK): increases the electrophoretic mobility of mitotic MELK; also recorded: readily altered the mobility shift in a dose-dependent manner
Protein amount of mitotic factors (Cyclin B1, MELK, Aurora B) [1]: efficiently reduced the protein amount of these mitotic factors
Time from nuclear envelope breakdown (NEBD) to anaphase, mean (U2OS cells): 66.4 min
